One assay relates to HtrA1. Description: phage spot ELISA on HtrA1. The format is binding. The settings on record: for ELISA s/n: Spot ELISA signal/noise; for ELISA s/n / ELISA signal: Fig 9A; for ELISA signal: Spot ELISA. The text has this:
To determine the performance of the libraries for ligand discovery we chose a panel of eight protein targets, which have no structural homology and a wide mass range (Fig 7C). We screened these eight targets with solution panning strategy and two additional plate panning for CD8α/β and CD28, thus ten panning campaigns in total. We consider clones showing spot phage ELISA signal > 0.3 and signal/noise ratio > 2 as positive hits. […] We also obtained the NGS data for these screening and the ranking of clones for their enrichment along the rounds of screening was analyzed and considered the top-ranking clones as potential hits. Based on their sequence diversity we selected 16 potential hits spanning five protein targets for peptide synthesis in their linear form. Seven of these are hits with positive phage ELISA signal and nine were selected based on NGS ranking without spot ELISA available. Subsequently, we conducted in vitro folding experiments on these peptides in various buffers.
(§1) The 5ji4 libraries were constructed following the Kunkel mutagenesis method and the solution panning protocol was followed as previously described. After four to five rounds of binding selection, while eluted pool was subjected to NGS analysis, individual phage clones were also picked and analyzed with phage spot ELISA. Positive clones were subjected to SANGER sequencing.
Among these five hits, A7, which is the SANGER hit, was picked for affinity maturation. Following the same strategy, one soft- and one hard-randomization library was designed targeting the 5JI4 variable regions 1 and 2, respectively. Two libraries were each panned as previously described. Both phage spot ELISA coupled with SANGER sequencing and NGS analysis were applied after affinity maturation.

The next assay concerns CD8α. Description: phage spot ELISA on CD8α. The format is binding. The settings on record: S3 Table sheet CD8α; for S/N: phage spot ELISA signal/noise; for ELISA: phage spot ELISA signal.
Description: To determine the performance of the libraries for ligand discovery we chose a panel of eight protein targets, which have no structural homology and a wide mass range (Fig 7C). We screened these eight targets with solution panning strategy and two additional plate panning for CD8α/β and CD28, thus ten panning campaigns in total. We consider clones showing spot phage ELISA signal > 0.3 and signal/noise ratio > 2 as positive hits. At least one binding hit was discovered for nine out of the ten panning campaigns, surpassing the success rate of the best DCP scaffolds reported previously. We also obtained the NGS data for these screening and the ranking of clones for their enrichment along the rounds of screening was analyzed and considered the top-ranking clones as potential hits. Based on their sequence diversity we selected 16 potential hits spanning five protein targets for peptide synthesis in their linear form. Seven of these are hits with positive phage ELISA signal and nine were selected based on NGS ranking without spot ELISA available. Subsequently, we conducted in vitro folding experiments on these peptides in various buffers. We observed a strong propensity for spontaneous folding regardless of the buffer condition. All HCP hits tested successfully folded into three-disulfide-containing product within two days in a universal buffer system (PBS, pH 7.4, 50% DMSO) without the need for a redox pair, as shown in Fig 8A. The binding of these folded peptides to their respective target proteins was confirmed using SPR (Table 4 and S1 Data) and binding kinetics are exemplified by the high-affinity peptide 5ji4-CRD7-2 (see Fig 8B). Among seven selected ELISA-positive hits, all of them were successfully synthesized and in vitro folded with three disulfide bonds and five were proven to be validated binders by SPR (Table 4). Nine peptides selected from the NGS ranking were synthesized and folded with the expected number of disulfide bonds and five of them bound to their target with affinities in the μM range as determined by SPR (Table 4). In general, binding affinities for these SPR-validated initial hits are weak, with Kd values in the micromolar range and fast on- and off-rates. There are two exceptions with binding affinities in the nanomolar range.
as §1

Where a SMILES comes first, the peptide text is derived from it. Bridges are numbered along the chain shown (N, C = ends).

In the assay on HtrA1, `CSCC[C@@H]1NC(=O)[C@H](CO)NC(=O)[C@@H]2CSSC[C@H](NC(=O)[C@H](CCC(=O)O)NC(=O)[C@H](C)NC(=O)[C@H](CO)NC(=O)[C@H](CO)NC(=O)[C@H]([C@@H](C)O)NC(=O)[C@H](CCSC)NC(=O)[C@H](Cc3ccccc3)NC(=O)[C@H]([C@@H](C)O)NC(=O)[C@H](Cc3c[nH]c4ccccc34)NC(=O)CNC(=O)[C@@H]3CCCN3C(=O)[C@H](CC(C)C)NC1=O)C(=O)N[C@@H](CCC(=O)O)C(=O)N[C@@H](CCCNC(=N)N)C(=O)N[C@@H](CC(C)C)C(=O)N[C@H]1CSSC[C@H](NC(=O)[C@H]([C@@H](C)O)NC(=O)[C@H](CCCNC(=N)N)NC(=O)[C@H](CC(C)C)NC(=O)CNC(=O)[C@H](CC(C)C)NC(=O)[C@H](CCCNC(=N)N)NC(=O)[C@H](CC(=O)O)NC1=O)C(=O)N[C@@H](CCCNC(=N)N)C(=O)N[C@@H](C(C)C)C(=O)N[C@@H](Cc1c[nH]cn1)C(=O)N[C@H](C(=O)NCC(=O)O)CSSC[C@H](NC(=O)[C@@H]1CCCN1)C(=O)N[C@@H](CCC(=O)O)C(=O)N2` [5ji4_A7.B7B2] (H-PCECSMLPGWTFMTSSAECERLCDRLGLRTCRVHCG-OH; disulfide 2-35, 4-19, 23-31) gave an ELISA s/n of 7.2 and an ELISA signal of 3.54.
In the assay on CD8α, “PCECDVNGETYTVSSSEECGRLCQYWFIMLCRVHCG [CD8α clone 2, phage clone, 5JI4 library, CD8α panning]” had a S/N of 38.5 and an ELISA of 3.391.
Consider “PCECTILRGWHFLTSSAECERLCRKLGVTNCRVHCG [HtrA1 clone 1, phage clone, 5JI4 library, HtrA1 panning; sole HtrA1 hit, probably 5ji4-A7]”, for which, in the assay with HtrA1 (phage spot ELISA signal/noise, S3 Table sheet HtrA1), the S/N worked out at 8.86. Moreover, the ELISA with HtrA1 (phage spot ELISA signal, S3 Table sheet HtrA1) came to 1.0205.
With `CC[C@H](C)[C@@H]1NC(=O)[C@H](CO)NC(=O)[C@@H]2CSSC[C@H](NC(=O)[C@H](CCC(=O)O)NC(=O)[C@H](C)NC(=O)[C@H](CO)NC(=O)[C@H](CO)NC(=O)[C@H]([C@@H](C)O)NC(=O)[C@H](CC(C)C)NC(=O)[C@H](Cc3ccccc3)NC(=O)[C@H](Cc3c[nH]cn3)NC(=O)[C@H](Cc3c[nH]c4ccccc34)NC(=O)CNC(=O)[C@H](CCCNC(=N)N)NC(=O)[C@H](CC(C)C)NC1=O)C(=O)N[C@@H](CCC(=O)O)C(=O)N[C@@H](CCCNC(=N)N)C(=O)N[C@@H](CC(C)C)C(=O)N[C@H]1CSSC[C@H](NC(=O)[C@H]([C@@H](C)O)NC(=O)[C@H](CCCNC(=N)N)NC(=O)[C@H](CC(C)C)NC(=O)CNC(=O)[C@H](CC(C)C)NC(=O)[C@H](CCCNC(=N)N)NC(=O)[C@H](CC(=O)O)NC1=O)C(=O)N[C@@H](CCCNC(=N)N)C(=O)N[C@@H]([C@@H](C)CC)C(=O)N[C@@H](Cc1c[nH]cn1)C(=O)N[C@H](C(=O)NCC(=O)O)CSSC[C@H](NC(=O)[C@@H]1CCCN1)C(=O)N[C@@H](CCC(=O)O)C(=O)N2` [5ji4_A7.D7B2] (H-PCECSILRGWHFLTSSAECERLCDRLGLRTCRIHCG-OH; disulfide 2-35, 4-19, 23-31), in the assay with HtrA1, the ELISA s/n stood at 5.3 and the ELISA signal is recorded as 3.45.
For `CC[C@H](C)[C@@H]1NC(=O)[C@H](CCCNC(=N)N)NC(=O)[C@@H]2CSSC[C@H](NC(=O)[C@H](CC(C)C)NC(=O)[C@H](CCCNC(=N)N)NC(=O)[C@H](C)NC(=O)[C@@H]3CSSC[C@H](NC(=O)[C@H](CCC(=O)O)NC(=O)[C@@H](NC(=O)[C@@H]4CCCN4)CSSC[C@@H](C(=O)NCC(=O)O)NC(=O)[C@H](Cc4c[nH]cn4)NC1=O)C(=O)N[C@@H](CO)C(=O)N[C@@H]([C@@H](C)CC)C(=O)N[C@@H](CC(C)C)C(=O)N1CCC[C@H]1C(=O)NCC(=O)N[C@@H](Cc1c[nH]c4ccccc14)C(=O)N[C@@H](Cc1c[nH]cn1)C(=O)N[C@@H](Cc1ccccc1)C(=O)N[C@@H](CC(C)C)C(=O)N[C@@H]([C@@H](C)O)C(=O)N[C@@H](CO)C(=O)N[C@@H](CO)C(=O)N[C@@H](C)C(=O)N[C@@H](CCC(=O)O)C(=O)N3)C(=O)N[C@@H](CC(=O)O)C(=O)N[C@@H](CCCNC(=N)N)C(=O)N[C@@H](CC(C)C)C(=O)NCC(=O)N[C@@H](CC(C)C)C(=O)N[C@@H](CCCNC(=N)N)C(=O)N[C@@H]([C@@H](C)O)C(=O)N2` [5ji4_A7.c1] (H-PCECSILPGWHFLTSSAECARLCDRLGLRTCRIHCG-OH; disulfide 2-35, 4-19, 23-31) the same measures were 7.5 and 3.55.
In the assay on CD8α, “PCDCDVNGETYTVSSSEECEPLCLNWLSSLCRVHCG [CD8α clone 3, phage clone, 5JI4 library, CD8α panning]” returned a S/N of 37.9 and an ELISA of 3.371.
For “PCECDVNGETYTVSSSEECEQDSDCLAGWVCRVHCG [CD8α clone 7, phage clone, 5JI4 library, CD8α panning]” the same measures were 34.2 and 3.252.
In the assay on CD8α, “PCECDVNGETYTVSSSEECERCQDWLFYLCRVHCG [CD8α clone 4, phage clone, 5JI4 library, CD8α panning]” showed a S/N of 35.6 and an ELISA of 3.525.
In the assay on HtrA1, `CC[C@H](C)[C@@H]1NC(=O)[C@H]([C@@H](C)O)NC(=O)[C@@H]2CSSC[C@H](NC(=O)[C@H](CCC(=O)O)NC(=O)[C@H](C)NC(=O)[C@H](CO)NC(=O)[C@H](CO)NC(=O)[C@H]([C@@H](C)O)NC(=O)[C@H](CC(C)C)NC(=O)[C@H](Cc3ccccc3)NC(=O)[C@H](Cc3c[nH]cn3)NC(=O)[C@H](Cc3c[nH]c4ccccc34)NC(=O)CNC(=O)[C@@H]3CCCN3C(=O)[C@H](CC(C)C)NC1=O)C(=O)N[C@@H](C)C(=O)N[C@@H](CCCNC(=N)N)C(=O)N[C@@H](CC(C)C)C(=O)N[C@H]1CSSC[C@H](NC(=O)[C@H]([C@@H](C)O)NC(=O)[C@H](CCCNC(=N)N)NC(=O)[C@H](CC(C)C)NC(=O)CNC(=O)[C@H](CC(C)C)NC(=O)[C@H](CCCNC(=N)N)NC(=O)[C@H](CC(=O)O)NC1=O)C(=O)N[C@@H](CCCNC(=N)N)C(=O)N[C@@H](C(C)C)C(=O)N[C@@H](Cc1c[nH]cn1)C(=O)N[C@H](C(=O)NCC(=O)O)CSSC[C@H](NC(=O)[C@@H]1CCCN1)C(=O)N[C@@H](CCC(=O)O)C(=O)N2` [5ji4_A7.B9B2] (H-PCECTILPGWHFLTSSAECARLCDRLGLRTCRVHCG-OH; disulfide 2-35, 4-19, 23-31) yielded an ELISA s/n of 7.0 and an ELISA signal of 3.67.
For `CC[C@H](C)[C@@H]1NC(=O)[C@H]([C@@H](C)O)NC(=O)[C@@H]2CSSC[C@H](NC(=O)[C@H](CCC(=O)O)NC(=O)[C@H](C)NC(=O)[C@H](CO)NC(=O)[C@H](CO)NC(=O)[C@H]([C@@H](C)O)NC(=O)[C@H](CC(C)C)NC(=O)[C@H](Cc3ccccc3)NC(=O)[C@H](Cc3ccc(O)cc3)NC(=O)[C@H](Cc3c[nH]c4ccccc34)NC(=O)CNC(=O)[C@@H]3CCCN3C(=O)[C@H](CC(C)C)NC1=O)C(=O)N[C@@H](CCC(=O)O)C(=O)N[C@@H](CCCNC(=N)N)C(=O)N[C@@H](CC(C)C)C(=O)N[C@H]1CSSC[C@H](NC(=O)[C@H]([C@@H](C)O)NC(=O)[C@H](CCCNC(=N)N)NC(=O)[C@H](CC(C)C)NC(=O)CNC(=O)[C@H](CC(C)C)NC(=O)[C@H](CCCNC(=N)N)NC(=O)[C@H](CC(=O)O)NC1=O)C(=O)N[C@@H](CCCNC(=N)N)C(=O)N[C@@H](C(C)C)C(=O)N[C@@H](Cc1c[nH]cn1)C(=O)N[C@H](C(=O)NCC(=O)O)CSSC[C@H](NC(=O)[C@@H]1CCCN1)C(=O)N[C@@H](CCC(=O)O)C(=O)N2` [5ji4_A7.H5B2] (H-PCECTILPGWYFLTSSAECERLCDRLGLRTCRVHCG-OH; disulfide 2-35, 4-19, 23-31) the same measures were 7.6 and 3.59.
For “PCACDVNGETYTVSSSEECERLCTWWYFVVCRVHCG [CD8α clone 5, phage clone, 5JI4 library, CD8α panning]”, in the assay with CD8α, the S/N is on record as 3.0 and the ELISA is on record as 0.282.
For “PCECDLNGETYTVSSSEECERLCSWYIQYVCRVHCG [CD8α clone 6, phage clone, 5JI4 library, CD8α panning]” the same measures were 2.2 and 0.194.

The values above are taken from article PMC11611271, “Rapid prediction of key residues for foldability by machine learning model enables the design of highly functional libraries with hyperstable constrained peptide scaffolds” (PLOS Computational Biology, 2024).
